Test results as given in PMC4871132 (Journal of chemical information and modeling, 2016).
Square brackets hold non-standard residues; d marks the D form. Peptide text beside a SMILES is read from it. * marks the point of attachment. ξ: configuration not given here. Cbz = O=C(OCc1ccccc1)*; ξM = CSCCC(N)C(=O)O

Legend:
PfDHODH = PfDHODH (Plasmodium falciparum, UniProt Q08210); experiment: colorimetric DCIP PfDHODH enzyme inhibition assay; assay type: biochemical; conditions: for % PfDHODH Inhibition at 10 μM: 10 μM compound; for IC50: read-out: PfDHODH IC50
Chain of PfDHODH (Q08210 24-569): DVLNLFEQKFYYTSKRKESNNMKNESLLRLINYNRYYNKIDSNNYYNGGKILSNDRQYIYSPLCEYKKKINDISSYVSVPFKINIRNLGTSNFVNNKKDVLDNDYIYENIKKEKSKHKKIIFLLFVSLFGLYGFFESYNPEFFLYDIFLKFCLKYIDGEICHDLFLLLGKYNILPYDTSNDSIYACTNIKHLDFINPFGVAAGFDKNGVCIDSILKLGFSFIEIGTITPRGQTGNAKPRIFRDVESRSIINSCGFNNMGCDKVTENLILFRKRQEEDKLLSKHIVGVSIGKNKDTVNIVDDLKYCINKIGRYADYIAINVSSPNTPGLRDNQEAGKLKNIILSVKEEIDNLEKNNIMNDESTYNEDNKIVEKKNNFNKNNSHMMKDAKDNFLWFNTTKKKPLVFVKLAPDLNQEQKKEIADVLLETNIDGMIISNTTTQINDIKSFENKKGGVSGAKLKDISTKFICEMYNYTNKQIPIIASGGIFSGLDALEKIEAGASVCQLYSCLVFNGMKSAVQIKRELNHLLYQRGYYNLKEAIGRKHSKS

[1] = test system: P. falciparum NF54 strain (PfNF54); experiment: in vitro antiplasmodial assay, [3H] hypoxanthine incorporation assay; assay type: cell-based; conditions: Plasmodium falciparum, NF54, read-out: PfNF54 IC50
[2] = test system: P. falciparum NF54 strain (PfNF54); experiment: in vitro antiplasmodial assay, parasite lactate dehydrogenase assay; assay type: cell-based; conditions: Plasmodium falciparum, NF54, read-out: PfNF54 IC50
hDHODH = hDHODH (Homo sapiens, UniProt Q02127); experiment: colorimetric DCIP human DHODH enzyme inhibition assay; assay type: biochemical
Chain of hDHODH (Q02127 whole entry): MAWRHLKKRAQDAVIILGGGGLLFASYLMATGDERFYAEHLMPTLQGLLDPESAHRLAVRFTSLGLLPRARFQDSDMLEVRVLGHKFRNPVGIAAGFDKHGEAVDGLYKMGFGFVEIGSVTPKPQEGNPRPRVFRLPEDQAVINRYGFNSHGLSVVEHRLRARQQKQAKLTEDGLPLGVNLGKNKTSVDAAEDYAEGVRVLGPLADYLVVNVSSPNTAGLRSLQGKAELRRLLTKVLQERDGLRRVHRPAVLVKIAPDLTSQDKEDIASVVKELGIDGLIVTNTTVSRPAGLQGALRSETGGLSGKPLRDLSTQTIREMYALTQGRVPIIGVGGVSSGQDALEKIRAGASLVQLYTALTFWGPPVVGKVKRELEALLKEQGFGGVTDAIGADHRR

| Structure (SMILES) | % PfDHODH Inhibition at 10 μM (PfDHODH) [%] | IC50 (PfDHODH) [nM] | also measured |
| --- | --- | --- | --- |
| CCOC(=O)c1cnc(SC)nc1Nc1ccc(Cl)cc1 [NSC165287] | 11 |  |  |
| CCOC(=O)C(=CNc1cc(Cl)ccc1Cl)C(=O)OCC [NSC137121] | 0 |  |  |
| CCOC(=O)C(=CNc1cccc2c(O)cccc12)C(=O)OCC [NSC340225] | 3 |  |  |
| C=CCN(CC(O)CO)c1ccccc1 (stereo not shown) [NSC58504] | 26 |  |  |
| CSCCC(NC(=O)COc1ccc(Cl)cc1Cl)C(=O)O (stereo not shown) [NSC87887] | 28 |  |  |
| CCN(CC)CCCC(C)Nc1ccnc2cc(Cl)ccc12 (stereo not shown) [Chloroquine] |  |  | IC50 [1]: 12 nM; IC50 [2]: 13 nM |
| O=NN(CCCl)C(=O)Nc1ccc2[nH]c3ccccc3c2c1 [NSC 116824] | 3 |  |  |
| CSCCC(NC(=O)OCc1ccccc1)C(=O)NCC(=O)O (stereo not shown) [NSC89636] (Cbz-[ξM]-Gly-OH) | 26 |  |  |
| CCOC(=O)C(=CNc1ccc2c(c1)OCO2)C(=O)OCC [NSC332161] |  | 5100 | % PfDHODH Inhibition at 10 μM (PfDHODH; 10 µM): 63% |
| CCOC(=O)C(=CNc1cccc(N(C)C)c1)C(=O)OCC [NSC336047] | 93 | 380 | species-selectivity for PfDHODH over hDHODH (hDHODH; from PfDHODH and hDHODH IC50): highly species selective; IC50 (hDHODH; read-out: hDHODH IC50): > 100000 nM |
| CCOC(=O)/C(C#N)=C/NCCc1c[nH]c2ccccc12 [NSC343533] | 50 | 20000 |  |
| CCOC(=O)C(Cc1c[nH]c2ccc([N+](=O)[O-])cc12)C(=O)OCC [NSC85231] | 28 |  |  |
| C[C@H]1[C@H](OC(=O)CCC(=O)O)O[C@@H]2O[C@@]3(C)CC[C@H]4[C@H](C)CC[C@@H]1[C@@]24OO3 [Artesunate] |  |  | IC50 [1]: 9 nM; IC50 [2]: 10 nM |
| COC(=O)C(CC(=O)c1ccc2ccccc2c1)OC (stereo not shown) [NSC72405] | 30 | > 100000 |  |
| CCOC(=O)CSC(=S)Nc1ccc(Cl)cc1 [NSC85749] | 46 | > 100000 | PfDHODH inhibition, result in words (PfDHODH): moderately active at concentrations above 30 μM |
